Test results published in patent US20120214846A1, “HEXAHYDROCYCLOPENTYL[F]INDAZOLE PYRIDYL ETHANOLS AND DERIVATIVES THEREOF AS SELECTIVE GLUCOCORTICOID RECEPTOR MODULATORS” (MERCK SHARP & DOHME CORP, priority 2009, published 2012).
≈ marks a conversion by molar mass, not a printed value. Where two headings read alike, the source gives them in different places.

Legend:
Solubility at pH 2 = format: physicochemical; conditions: pH 2, read-out: Solubility At pH 2
GR [1] = target: T1, GR (Homo sapiens, UniProt P04150); assay: Transrepression Assay (GITAR), TNFα-β-lactamase reporter, U937 cells; format: cell-based; parameters: U937 cells contain an endogenous glucocorticoid receptor (GR); endogenous in cells; host or cells: U937 cells stably transfected with the TNF-alpha promoter beta-lactamase reporter; conditions: for EC50 / Transrepression U937 Cells GITAR Emax: U937 cells; for EC50: inflection point, read-out: Transrepression U937 Cells GITAR IP; for Emax: U-937, U937 cells, read-out: Transrepression U937 Cells GITAR Emax; for Emax / Transrepression U937 Cells GITAR Emax: activity repressed by 100 nM dexamethasone set as 100%
T1 sequence (P04150 1-777): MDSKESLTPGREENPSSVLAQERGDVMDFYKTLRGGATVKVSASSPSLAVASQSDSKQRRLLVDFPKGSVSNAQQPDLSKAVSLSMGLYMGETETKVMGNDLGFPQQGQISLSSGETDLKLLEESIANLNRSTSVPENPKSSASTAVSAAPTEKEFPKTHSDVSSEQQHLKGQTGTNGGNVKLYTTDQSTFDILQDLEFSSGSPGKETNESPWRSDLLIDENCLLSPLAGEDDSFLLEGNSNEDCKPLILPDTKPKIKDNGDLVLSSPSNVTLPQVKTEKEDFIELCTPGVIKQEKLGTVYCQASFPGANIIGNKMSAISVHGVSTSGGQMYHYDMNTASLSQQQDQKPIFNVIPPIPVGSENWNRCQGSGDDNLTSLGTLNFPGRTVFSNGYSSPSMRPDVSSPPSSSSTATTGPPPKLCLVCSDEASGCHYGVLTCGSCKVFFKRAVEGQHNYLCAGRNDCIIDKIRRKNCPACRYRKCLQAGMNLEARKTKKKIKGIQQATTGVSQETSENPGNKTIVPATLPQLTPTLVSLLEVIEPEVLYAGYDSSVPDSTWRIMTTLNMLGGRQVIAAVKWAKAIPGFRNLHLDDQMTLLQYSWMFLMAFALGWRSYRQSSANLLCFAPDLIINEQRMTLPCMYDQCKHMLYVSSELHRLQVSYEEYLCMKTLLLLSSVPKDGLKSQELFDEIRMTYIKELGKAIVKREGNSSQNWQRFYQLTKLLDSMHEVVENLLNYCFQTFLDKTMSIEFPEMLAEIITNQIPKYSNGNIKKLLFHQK
Description: This assay assesses the ability of test compounds to control transcription from the TNFα-β-lactamase reporter gene in U937 cells, a human myelomonocytic leukemia cell line that naturally expresses the human GR. The assay measures compound dependent-repression of the TNFa promoter linked to a reporter gene.
The human U937 cells that had been stablely transfected with the TNF-α promoter driving […] are used for this assay. U937 cells contain an endogenous glucocorticoid receptor (GR). […] 50,000 cells/well are plated in 96 well black-walled plates the day of assay. Test compounds are added 10 μL/well, and cells are incubated at 37° C. for 30˜45 min. For assaying compounds, first dilute 1:10 in DMSO to make 1 mM, then further dilute 1:100 in medium to make 10× stock prior to adding to the cells. Add 50 ng/ml PMA (Sigma, cat#P8139) 10 μL/well to a final concentration 5 ng/ml, and 1 μg/ml LPS (Sigma, cat#L4130) 10 μL/well to a final concentration 100 ng/ml. Incubate cells at 37° C. overnight for ˜18 hr. PMA is stored frozen as 100 μg/ml stock in DMSO. Dilute 1:10 in DMSO for a working stock of […] and store at −20 C. For assaying, dilute the 10 μg/ml working stock 1:200 in medium to make a 10× solution (50 ng/ml). Store frozen LPS at 1 mg/ml in PBS, dilute 1:1000 in medium to make 10× (1 μg/ml) for the assay. Add 6× loading buffer (CCF2-AM) 20 μL/well, and incubate at room temperature for 70˜90 min. […] The activity repressed by 100 nM dexamethasone alone is set as 100% activity.

GR [2] = target: T1, GR; assay: GR Ligand Binding Assay (GR BIND), HeLa cell lysate, 3H-DEX; parameters: endogenous in cells; host or cells: HeLa (ATCC) cell lysate supernatant; conditions: HeLa cell lysate, 3H-DEX; read-out: GR BIND Ki
Method: Binding Buffer: TEGM (10 mM Tris-HCl, 1 mM EDTA, 10% glycerol, 1 mM beta-mecaptoethanol, 10 mM Sodium Molybdate, pH 7.2)
Phenol red-free Trypsin-EDTA is diluted in the same PBS 1:10. The cell layers are rinsed with 1× Trypsin, extra Trypsin is poured out, and the cell layers are incubated at 37° C. for ˜2 min. The flask is tapped and checked for signs of cell detachment. Once the cells begin to slide off the flask, the complete media is added. The cells are counted at this point, then diluted to the appropriate concentration and split into flasks or dishes for further culturing (Usually 1:3 to 1:6 dilution).
The cell pellet is washed twice with TEGM (10 mM Tris-HCl, 1 mM EDTA, 10% glycerol, 1 mM beta-mercaptoethanol, 10 mM Sodium Molybdate, pH 7.2). […] The cell suspension is snap frozen in liquid nitrogen or ethanol/dry ice bath and transferred to −80° C. freezer on dry ice. Before setting up the binding assay, the frozen samples are left on ice-water to just thaw (˜1 hr). Then the samples are centrifuged at 12,500 g to 20,000 g for 30 min at 4° C. The supernatant is used to set-up assay right away. If using 50 μL of supernatant, the test compound can be prepared in 50 μL of the TEGM buffer.
1×TEGM buffer is prepared, and the isotope-containing assay mixture is prepared in the following order: EtOH (2% final concentration in reaction), 3H-DEX (Amersham Biosciences) and 1×TEGM. [e.g. For 100 samples, 200 μL (100×2) of EtOH+4.25 μL of 1:10 3H-Dex stock+2300 μL (100×23) 1×TEGM]. The compound is serially diluted, e.g., if starting final conc. is 1 μM, and the compound is in 25 μL of solution, for duplicate samples, 75 μL of 4×1 μM solution is made and 3 μL of 100 μM is added to 72 μL of buffer, and 1:5 serial dilution.
25 μL of 3H-DEX (6 nM) trace and 25 μl, compound solution are first mixed together, followed by addition of 50 μL receptor solution. The reaction is gently mixed, spun briefly at about 200 rpm and incubated at 4° C. overnight. 100 μL of 50% HAP slurry is prepared and added to the incubated reaction which is then vortexed and incubated on ice for 5 to 10 minutes. The reaction mixture is vortexed twice more to resuspend HAP while incubating reaction. The samples in 96-well format are then washed in wash buffer using The FilterMate™ Universal Harvester plate washer (Packard). The washing process transfers HAP pellet containing ligand-bound expressed receptor to Unifilter-96 GF/B filter plate (Packard). The HAP pellet on the filter plate is incubated with 50 μL of MICROSCINT (Packard) scintillint for 30 minutes before being counted on the TopCount microscintillation counter (Packard). IC50s are calculated using DEX as a reference.

SMILES	solubility (Solubility at pH 2; pH 2, aqueous buffer)	EC50 (GR [1])	Emax (GR [1])	Ki (GR [2])	Transrepression U937 Cells GITAR Emax (GR [1])	solubility (Solubility at pH 2)
Cc1cccnc1C(O)C[C@]1(O)CCC2=Cc3c(cnn3-c3ccc(F)cc3)C[C@@]21C (single isomer, unassigned) [Example 1a]	148 µM (≈ 62.1 µg/mL)	95.2 nM	71.3%	6.7 nM	–	–
Cc1cccnc1C(O)C[C@]1(O)CCC2=Cc3c(cnn3-c3ccc(F)cc3)C[C@@]21C (single isomer, unassigned) [Example 1b]	–	233 nM	–	3.9 nM	58.3%	–
C[C@]12Cc3cnn(-c4ccc(F)cc4)c3C=C1CC[C@@]2(O)CC(O)c1ccccn1 (single isomer, unassigned) [Example 2a]	105 µM (≈ 42.6 µg/mL)	237 nM	63.5%	11.7 nM	–	–
C[C@]12Cc3cnn(-c4ccc(F)cc4)c3C=C1CC[C@@]2(O)CC(O)c1ccccn1 (single isomer, unassigned) [Example 2b]	–	128 nM	–	6.4 nM	68.6%	192 µM (≈ 77.9 µg/mL)
C[C@]12Cc3cnn(-c4ccc(F)cc4)c3C=C1CC[C@@]2(O)CC(O)c1cc(C(F)(F)F)ccn1 (single isomer, unassigned) [Example 5a]	–	67.5 nM	89.1%	2.6 nM	–	18 µM (≈ 8.52 µg/mL)
C[C@]12Cc3cnn(-c4ccc(F)cc4)c3C=C1CC[C@@]2(O)CC(O)c1cc(C(F)(F)F)ccn1 (single isomer, unassigned) [Example 5b]	–	145 nM	–	4.3 nM	75.6%	3 µM (≈ 1.42 µg/mL)
C[C@]12Cc3cnn(-c4ccc(F)cc4)c3C=C1CC[C@@]2(O)CC(O)c1ccc(F)cn1 (single isomer, unassigned) [Example 7a]	64 µM (≈ 27.1 µg/mL)	441 nM	75.2%	10.8 nM	–	–
C[C@]12Cc3cnn(-c4ccc(F)cc4)c3C=C1CC[C@@]2(O)CC(O)c1ccc(F)cn1 (single isomer, unassigned) [Example 7b]	–	248 nM	–	4.8 nM	83.0%	35 µM (≈ 14.8 µg/mL)
C[C@]12Cc3cnn(-c4ccc(F)cc4)c3C=C1CC[C@@]2(O)CC(O)c1cc(Cl)ccn1 (single isomer, unassigned) [Example 8a]	–	96.7 nM	77.9%	5 nM	–	<1 µM
